Assay results taken from US7273846B2, “Selective melanin-concentrating hormone type-1 receptor agonists” (priority 2002, dated 2007).
Residues, ends and D or L forms follow the SMILES beside them.

What was measured:
MCH-2R [1] = target: T1, MCH-2R (Homo sapiens, UniProt Q969V1); test: Aequorin bioluminescence functional assay, 293AEQ17/MCH-2R cells; format: cell-based; parameters: expressed in transfected cells; MCH-2R Activation %: concentration or dose not given beside the values; conditions: for EC50: aequorin, 293AEQ17/MCH-2R cells; for MCH-2R Activation %: human MCH = 100
From the text: (§1) The aequorin bioluminescence assay is a reliable test for identifying G-protein-coupled receptors that couple through the G protein subunit family consisting of Gq and G11. Gq and G11 coupling leads to the activation of phospholipase C, mobilization of intracellular calcium, and activation of protein kinase C.
Stable cell lines expressing either the MCH-1R or the MCH-2R and the aequorin reporter protein were used.
(§2) The cells were harvested, washed once in ECB medium, and resuspended to 500,000 cells/mL. 100 μL of cell suspension (corresponding to 5×10^4 cells) was then injected into the test plate containing the hMCH peptides, and the integrated light emission was recorded over 30 seconds, in 0.5-s units. 20 μL of lysis buffer (0.1% final Triton X-100 concentration) was then injected and the integrated light emission recorded over 10 seconds, in 0.5-s units. The “fractional response” values for each well were calculated by taking the ratio of the integrated response to the initial challenge to the total integrated luminescence including the Triton X-100 lysis response.

MCH-1R [2] = target: T2, MCH-1R (Homo sapiens, UniProt Q99705)
MCH-1R [3] = target: T2, MCH-1R; test: Aequorin bioluminescence functional assay, 293AEQ17/MCH-1R cells; format: cell-based; parameters: expressed in transfected cells; conditions: for EC50: aequorin, 293AEQ17/MCH-1R cells, read-out: MCH-1R EC50; for MCH-1R Activation %: human MCH = 100, activation at 10 μM concentration; for fold lower agonist activity at hMCH-1R: relative to Ac-hMCH(6-16)-NH2
Experimental: as §1
Stable cell lines expressing either the MCH-1R or the MCH-2R and the aequorin reporter protein were used. The assay was performed using a Luminoskan RT luminometer (Labsystems Inc., Gaithersburg, Md.) controlled by custom software written for a Macintosh PowerPC 6100.
as §2

MCH-2R [4] = target: T1, MCH-2R; test: Radioligand binding assay (SPA), MCH-2R; conditions: for IC50: MCH-2R IC50, [125I]-[Phe13,Tyr19]-hMCH SPA, COS or CHO MCH-2R membranes

T1 sequence (Q969V1 whole entry): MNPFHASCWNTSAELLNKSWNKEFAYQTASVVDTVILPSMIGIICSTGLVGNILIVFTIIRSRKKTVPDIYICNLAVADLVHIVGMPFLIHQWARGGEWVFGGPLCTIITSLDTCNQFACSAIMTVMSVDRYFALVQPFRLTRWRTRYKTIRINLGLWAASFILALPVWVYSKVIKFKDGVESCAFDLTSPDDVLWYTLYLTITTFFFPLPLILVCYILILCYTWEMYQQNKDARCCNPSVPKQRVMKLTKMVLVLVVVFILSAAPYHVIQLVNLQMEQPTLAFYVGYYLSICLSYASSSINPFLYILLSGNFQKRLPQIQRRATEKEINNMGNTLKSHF
T2 sequence (Q99705 whole entry): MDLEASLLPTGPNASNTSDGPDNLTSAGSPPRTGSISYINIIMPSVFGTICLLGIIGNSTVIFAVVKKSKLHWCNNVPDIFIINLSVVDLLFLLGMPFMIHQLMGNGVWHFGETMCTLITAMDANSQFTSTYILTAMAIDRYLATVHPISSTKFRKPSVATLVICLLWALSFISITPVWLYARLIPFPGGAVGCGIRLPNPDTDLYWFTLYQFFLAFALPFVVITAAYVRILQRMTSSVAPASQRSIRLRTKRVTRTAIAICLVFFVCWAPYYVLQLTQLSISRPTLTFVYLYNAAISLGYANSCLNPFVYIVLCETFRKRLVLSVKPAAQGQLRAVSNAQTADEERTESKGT

Row | agonism at hMCH-2R in words (MCH-2R [1]) | EC50 (MCH-2R [1]) [nM] | MCH-2R Activation % (MCH-2R [1]) [%] | Selectivity 2/1 (MCH-2R/MCH-1R IC50 binding ratio) (MCH-1R [2]) | fold lower binding affinity for hMCH-1R (MCH-1R [2]; relative to the D-Arg^6 compound) | Selectivity 2/1 (MCH-2R/MCH-1R EC50 activity ratio) (MCH-1R [3]) | EC50 (MCH-1R [3]) [nM] | MCH-1R Activation % (MCH-1R [3]) [%] | fold lower binding affinity at hMCH-1R (MCH-1R [2]; relative to Ac-hMCH(6-16)-NH2) | binding to hMCH-2R in words (MCH-2R [4]) | IC50 (MCH-2R [4]) [nM] | fold lower agonist activity at hMCH-1R (MCH-1R [3]) [fold] | fold lower agonist potency at hMCH-2R (MCH-2R [1]; relative to Ac-hMCH(6-16)-NH2) [fold] | fold more selective as agonist for hMCH-1R than hMCH-2R (MCH-1R [3]) | Structure (SMILES) | agonism at hMCH-1R in words (MCH-1R [3])
1 | lower than those of the L-Arg^6 compound | 310 | 68 | 43 | about 30 fold | 0.3 | 920 | 91 |  |  |  |  |  |  | CSCC[C@@H]1NC(=O)[C@@H](NC(=O)[C@@H](CCCNC(N)=O)NC(C)=O)CSSC[C@@H](C(N)=O)NC(=O)[C@@H]2CCCN2C(=O)[C@H](CCCNC(=N)N)NC(=O)[C@H](Cc2ccc(O)cc2)NC(=O)[C@H](C(C)C)NC(=O)[C@H](CCCNC(=N)N)NC(=O)CNC(=O)[C@H](CC(C)C)NC1=O [SEQ. ID. NO. 14] | lower than those of the L-Arg^6 compound
2 |  | > 3000 | 47 | 500 |  | 5 |  | 92 | about 5 fold | very weak ligand | 3500 | ~30 |  |  | CSCC[C@@H]1NC(=O)CCSSC[C@@H](C(N)=O)NC(=O)[C@@H]2CCCN2C(=O)[C@H](CCCNC(=N)N)NC(=O)[C@H](Cc2ccc(O)cc2)NC(=O)[C@H](C(C)C)NC(=O)[C@H](CCCNC(=N)N)NC(=O)CNC(=O)[C@H](CC(C)C)NC1=O [SEQ. ID. NO. 15] | 
3 |  |  | 102 | 16 |  | 0.29 | 51 | 121 |  |  |  |  |  |  | CSCC[C@@H]1NC(=O)[C@@H](NC(=O)[C@H](CCCNC(=N)N)NC(C)=O)CSSC[C@@H](C(N)=O)NC(=O)[C@@H]2CCCN2C(=O)[C@H](CCCNC(=N)N)NC(=O)[C@H](Cc2ccc(O)cc2)NC(=O)[C@H](C(C)C)NC(=O)[C@H](CCCNC(=N)N)NC(=O)[C@H](C)NC(=O)[C@H](CC(C)C)NC1=O [SEQ. ID. NO. 16] (HELM PEPTIDE1{[ac].R.C.M.L.A.R.V.Y.R.P.C.[am]}$PEPTIDE1,PEPTIDE1,3:R3-12:R3$$$V2.0) | 
4 |  |  | 74 | 1900 |  | 1.8 |  | 123 |  |  |  |  |  |  | CSCC[C@@H]1NC(=O)[C@@H](NC(=O)[C@H](CCCNC(=N)N)NC(C)=O)CSSC[C@@H](C(N)=O)NC(=O)[C@@H]2CCCN2C(=O)[C@H](CCCNC(=N)N)NC(=O)[C@H](Cc2ccc(O)cc2)NC(=O)[C@H](C(C)C)NC(=O)[C@H](CCCNC(=N)N)NC(=O)[C@H](CC(C)C)NC(=O)[C@H](CC(C)C)NC1=O [SEQ. ID. NO. 17] | 
5 | poorly activated both receptors |  | 74 | 11 |  | 0.25 |  | 76 |  |  | 55 |  |  |  | CSCC[C@@H]1NC(=O)[C@@H](NC(=O)[C@H](CCCNC(=N)N)NC(C)=O)CSSC[C@@H](C(N)=O)NC(=O)[C@@H]2CCCN2C(=O)[C@H](CCCNC(=N)N)NC(=O)[C@H](Cc2ccc(O)cc2)NC(=O)[C@H](C(C)C)NC(=O)[C@H](CCCNC(=N)N)NC(=O)[C@H](CC2CCCCC2)NC(=O)[C@H](CC(C)C)NC1=O [SEQ. ID. NO. 19] | poorly activated both receptors
6 |  |  | 105 | 14 |  |  | > 10000 | 7 |  |  |  |  |  |  | CSCC[C@@H]1NC(=O)[C@@H](NC(=O)[C@H](CCCNC(=N)N)NC(C)=O)CSSC[C@@H](C(N)=O)NC(=O)[C@@H]2CCCN2C(=O)[C@H](CCCNC(=N)N)NC(=O)[C@H](Cc2ccc(O)cc2)NC(=O)[C@H](C(C)C)NC(=O)[C@H](CCCNC(=N)N)NC(=O)[C@H](Cc2ccc3ccccc3c2)NC(=O)[C@H](CC(C)C)NC1=O [SEQ. ID. NO. 21] | 
7 |  |  | 38 | 0.7 |  |  | > 10000 | 7 |  |  |  |  |  |  | CSCC[C@@H]1NC(=O)[C@@H](NC(=O)[C@H](CCCNC(=N)N)NC(C)=O)CSSC[C@@H](C(N)=O)NC(=O)[C@@H]2CCCN2C(=O)[C@H](CCCNC(=N)N)NC(=O)[C@H](Cc2ccc(O)cc2)NC(=O)[C@H](C(C)C)NC(=O)[C@H](CCCNC(=N)N)NC(=O)[C@H](CCCNC(=N)N)NC(=O)[C@H](CC(C)C)NC1=O [SEQ. ID. NO. 23] (HELM PEPTIDE1{[ac].R.C.M.L.R.R.V.Y.R.P.C.[am]}$PEPTIDE1,PEPTIDE1,3:R3-12:R3$$$V2.0) | 
8 |  |  | 40 | 86 |  | 1 |  | 43 |  |  | 1460 | 300 | 300 |  | CSCC[C@@H]1NC(=O)[C@@H](NC(=O)[C@H](CCCNC(=N)N)NC(C)=O)CSSC[C@@H](C(N)=O)NC(=O)[C@@H]2CCCN2C(=O)[C@H](CCCNC(=N)N)NC(=O)[C@H](Cc2ccc(O)cc2)NC(=O)[C@H](C(C)C)NC(=O)[C@H](CCCNC(=N)N)NC(=O)[C@H](CCCCN)NC(=O)[C@H](CC(C)C)NC1=O [SEQ. ID. NO. 24] | 
9 |  |  | 68 | 42 |  | 0.3 | 920 | 91 |  |  |  |  |  |  | CSCC[C@@H]1NC(=O)[C@@H](NC(=O)[C@H](CCCNC(=N)N)NC(C)=O)CSSC[C@@H](C(N)=O)NC(=O)[C@@H]2CCCN2C(=O)[C@H](CCCNC(=N)N)NC(=O)[C@H](Cc2ccc(O)cc2)NC(=O)[C@H](C(C)C)NC(=O)[C@H](CCCNC(=N)N)NC(=O)[C@H](CCCNC(N)=O)NC(=O)[C@H](CC(C)C)NC1=O [SEQ. ID. NO. 27] | 
10 |  | > 10000 | 11 | 230 |  |  |  | 74 |  |  |  |  |  | about 150 fold | CSCC[C@@H]1NC(=O)[C@@H](NC(=O)[C@@H](CCCNC(=N)N)NC(C)=O)CSSC[C@@H](C(N)=O)NC(=O)[C@@H]2CCCN2C(=O)[C@H](CCCNC(=N)N)NC(=O)[C@H](Cc2ccc(O)cc2)NC(=O)[C@H](C(C)C)NC(=O)[C@H](CCCNC(=N)N)NC(=O)[C@H](CCC(N)=O)NC(=O)[C@H](CC(C)C)NC1=O [SEQ. ID. NO. 30] (HELM PEPTIDE1{[ac].[dR].C.M.L.Q.R.V.Y.R.P.C.[am]}$PEPTIDE1,PEPTIDE1,3:R3-12:R3$$$V2.0) | activated hMCH-1R almost as efficiently as Ac-hMCH(6-16)NH2

Row | Structure (SMILES) | agonism at hMCH-2R in words (MCH-2R [1]) | EC50 (MCH-2R [1]) [nM] | MCH-2R Activation % (MCH-2R [1]) [%] | Selectivity 2/1 (MCH-2R/MCH-1R IC50 binding ratio) (MCH-1R [2]) | fold lower binding affinity for hMCH-1R (MCH-1R [2]; relative to the D-Arg^6 compound) | Selectivity 2/1 (MCH-2R/MCH-1R EC50 activity ratio) (MCH-1R [3]) | EC50 (MCH-1R [3]) [nM] | MCH-1R Activation % (MCH-1R [3]) [%] | fold lower binding affinity at hMCH-1R (MCH-1R [2]; relative to Ac-hMCH(6-16)-NH2) | binding to hMCH-2R in words (MCH-2R [4]) | IC50 (MCH-2R [4]) [nM] | fold lower agonist activity at hMCH-1R (MCH-1R [3]) [fold] | fold lower agonist potency at hMCH-2R (MCH-2R [1]; relative to Ac-hMCH(6-16)-NH2) [fold] | fold more selective as agonist for hMCH-1R than hMCH-2R (MCH-1R [3]) | agonism at hMCH-1R in words (MCH-1R [3])
11 | CSCC[C@@H]1NC(=O)[C@@H](NC(=O)[C@H](CCCNC(=N)N)NC(C)=O)CSSC[C@@H](C(N)=O)NC(=O)[C@@H]2CCCN2C(=O)[C@H](CCCNC(=N)N)NC(=O)[C@H](Cc2ccc(O)cc2)NC(=O)[C@H](C(C)C)NC(=O)[C@H](CCCNC(=N)N)NC(=O)[C@@H]2CCCN2C(=O)[C@H](CC(C)C)NC1=O [SEQ. ID. NO. 22] | virtually inactive at micromolar concentrations |  | 13 | 5 |  |  | > 10000 | 10 |  |  | 3500 |  |  |  | virtually inactive at micromolar concentrations
